These results are taken from US20030176689A1, “Inhibitors of hepatitis C virus protease” (priority 2001, published 2003).

The target in one series is NS3 and wt NS4A (Hepatitis C virus genotype 1a, UniProt P27958). Description: Inhibition of cleavage of 5A-pNA by NS3 and wt NS4A. In kind it is biochemical, HCV. The note with it: for inhibition of cleavage of 5A-pNA by NS3 and wt NS4A: FIG. 12. How it is done: Again, lower case letters indicate the D-amino acid. Cha represents cyclohexylalanine. The peptides were assayed for inhibition of cleavage of 5A-pNA by NS3 and wt NS4A.
Chain of NS3 and wt NS4A (P27958 1027-1207): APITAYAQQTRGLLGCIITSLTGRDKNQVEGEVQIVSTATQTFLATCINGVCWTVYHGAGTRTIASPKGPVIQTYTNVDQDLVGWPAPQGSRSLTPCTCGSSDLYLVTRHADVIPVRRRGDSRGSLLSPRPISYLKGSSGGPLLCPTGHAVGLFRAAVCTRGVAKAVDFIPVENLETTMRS

The next series addresses T1, HCV NS3 protease domain (Hepatitis C virus genotype 1a, UniProt P27958).
T1 construct: immobilization of the NS3 protease domain on streptavidin coated beads; made in house; host or cells: E. coli
Description: FAC-MS (frontal affinity chromatography with in-line MS) binding to immobilized NS3. An excerpt:
An assay using frontal affinity chromatography (FAC) with an in-line mass spectrometer (MS) as described by Schriemer et al. 1998 Agnew. Chem. Int. Ed. 37, 3383-3387 (referred to as FAC-MS) was adapted to identify NS3 protease inhibitors. Briefly, a HCV NS3 protease domain was cloned into a site in a vector that allows for the recombinant NS3 protein to be biotinylated when expressed in E. coli. This provides for immobilization of the NS3 protease domain on streptavidin coated beads which are packed into a miniaturized column. The column is connected in-line to a mass spectrometer. This arrangement facilitates assaying combinatorial compounds individually from a library of peptides for activity in binding the immobilized NS3 protease domain. As the library is continually infused through the column, each compound produces a sigmoidal curve as its elution profile.
The inventors first examined the ability of mutant NS4A peptides to bind to NS3 using the FAC-MS assay described in Example 1. The sequence of the peptides described here is described by the wild-type residue modified, the position of the residue in the wildtype NS4A polypeptide, and the residue substituted at that position. […] “Pen” refers to Penacillamine; “chA” refers to β-cyclohexylalanine; “t” refers to “tert” (so that, for example, “t-L” refers to tert-leucine. […]

Series [1] concerns the target T2, NS3 (Hepatitis C virus genotype 1a, UniProt P27958). Description: Activation of NS3 by mutant NS4A peptides using 5A-pNA as the substrate. In kind it is biochemical, HCV. The settings on record: for kcat: substrate 5A-pNA, extrapolated to infinite NS4A concentration.
Description: (§1) Binding of the peptides was then analyzed by enzyme kinetics to detect whether the mutated NS4A peptides activated NS3-catalysed cleavage of substrates individually. Two NS3 substrates were used: 5ApNA (which contains the P side residues (six of them) of the substrate linked to para-nitroaniline) and 5A/5B (which is the natural cleavage junction that is found between the NS5A and NS5B proteins) using conventional methods (see, e.g., Landro et. al. 1997, Biochemistry 36 p9340-9348; and “Enzyme Kinetics” by Irwin Segel pub: Wiley and Sons, New York 1975 Chapter 5). Values in the tables were obtained by extrapolating the Km and kcat values obtained for substrates at several concentrations of NS4A mutant peptides to infinite NS4A concentration. The Km and kcat values were obtained from double reciprocal plots of initial velocity measurements made at several concentrations of substrate and a constant NS4Aconcentration. Peptide concentrations used in calculations in Table 3 are based on those supplied by the facility that synthesized the peptides at the inventors' direction.
The target of series [2] is T2, NS3. Description: Activation of NS3 by mutant NS4A peptides using 5A/5B as the substrate. The settings on record: substrate 5A/5B; NS3 batch used for wild-type and V23 mutant peptides. It is filed as biochemical, HCV.
Description: as §1
The target of a further series is NS3 protease (Hepatitis C virus genotype 1a, UniProt P27958). Description: Rates of NS3 in the presence of short NS4A peptides. In kind it is biochemical, HCV. The settings on record: substrate 5A-pNA subsaturating; 66 to 360 μM peptide. How it is done: The ability of the short peptides to activate the NS3 protease was tested at several concentrations between 66 and 360 μM peptide. The concentration of substrate 5A-pNA was subsaturating.
Chain of NS3 protease (P27958 1027-1207): as above

A further series concerns HCV. The settings on record: PBMCs from an HCV-infected patient, 4 days, NS3 Western blot; preliminary, first experiment.

The term Kd denotes the free concentration of one partner at which half of the binding sites on the other are occupied at equilibrium, for simple one-to-one binding. A higher Kd goes with weaker binding. What is called kcat is the number of substrate molecules converted per active site and unit of time at saturation. By IC50 is commonly meant the concentration that inhibits the measured activity by half. Low values mean higher potency, high ones lower potency.

Square brackets hold non-standard residues; d marks the D form. Ends that are not written are not given here. Peptide text beside a SMILES is read from it. Cha = N[C@@H](CC1CCCCC1)C(=O)O; Pen = CC(C)(S)[C@H](N)C(=O)O

T1 sequence (P27958 1027-1208): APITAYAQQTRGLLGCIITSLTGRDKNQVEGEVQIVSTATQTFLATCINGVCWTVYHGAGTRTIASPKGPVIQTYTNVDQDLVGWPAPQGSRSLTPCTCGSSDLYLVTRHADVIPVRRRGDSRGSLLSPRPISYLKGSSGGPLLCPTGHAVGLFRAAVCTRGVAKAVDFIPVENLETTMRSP
T2 sequence (P27958 1027-1207): as the sequence (P27958 1027-1207) above

Regarding W(Cha)vR(Cha)I(Cha)-NH2 [Peptide 1], on NS3 and wt NS4A, the “precipitation in the reaction mixture” value is “caused precipitation in the reaction mixture”; the “inhibition of cleavage of 5A-pNA by NS3 and wt NS4A” value (“inhibition of cleavage of 5A-pNA” for short) was “inhibited this reaction”.

KKGSFVIVGRIVLSGK [Peptide V23F]: the dissociation constant (Kd) on HCV NS3 protease domain worked out at 3.7 µM. Moreover, at HCV NS3 protease domain (Val23 substituted NS4A peptides, FIG. 4), the “FAC-MS elution (later elution = more tightly bound to NS3)” value is recorded as “eluted last”. For the same molecule, the “activation of NS3 catalysed cleavage, rank among peptides mutated at the same position” value at NS3 [1] (position 23 or position 26 mutants) was “poorest”. Besides, the kcat was 0.00782 ± 0.0005 s⁻¹ on NS3 [1] and 0.0883 ± 0.005 s⁻¹ at NS3 [2].

Consider VGRIVL, for which the Rate at NS3 protease was 1.70 µmol/min/mg.

KKGSLVIVGRIVLSGK [Peptide V23L]: the affinity on HCV NS3 protease domain, expressed as Kd, was 5.1 µM. In addition, the kcat at NS3 [1] is 0.0157 ± 0.00075 s⁻¹.

On to KKGSCVIVGRIVLSGK [Peptide V23C], for which binding at HCV NS3 protease domain was characterised by a dissociation constant (Kd) of 4.8 µM. Moreover, the values for the kcat at NS3 [1] and on NS3 [2] were 0.0197 ± 0.00017 s⁻¹ and 0.124 ± 0.00033 s⁻¹, respectively.

With “KKGSVVIVGRIVLSGK [Wild-type, KKGSVVIVGRIVLSGK, reference compound]”, on NS3 protease, the Rate was determined as 37.4 µmol/min/mg.

In turn, VVIVGRI [VVIVGRI] displayed a dissociation constant (Kd) at HCV NS3 protease domain of 103 µM. The Rate at NS3 protease amounted to 1.88 µmol/min/mg.

For the molecule FFW(Cha)vR(Cha)-NH2 [Peptide 5], on NS3 and wt NS4A, the “precipitation in the reaction mixture” value was “caused precipitation in the reaction mixture”; the “inhibition of cleavage of 5A-pNA” value is reported as “inhibited this reaction”.

As to `CC[C@H](C)[C@H](NC(=O)[C@H](CC1CCCCC1)NC(=O)[C@H](CCCNC(=N)N)NC(=O)[C@H](NC(=O)[C@H](CC1CCCCC1)NC(=O)[C@@H](N)CCCNC(=N)N)C(C)C)C(=O)N[C@@H](CC1CCCCC1)C(N)=O` [Peptide 3, R(Cha)vR(Cha)I(Cha)-NH2] (H-R[Cha][dV]R[Cha]I[Cha]-NH2; N-terminus assumed), on NS3 and wt NS4A, 163 ± 5 µM corresponded to half-maximal inhibition (IC50); the “inhibition of cleavage of 5A-pNA” value is listed as “inhibited this reaction”. Further, the “inhibition of replication of HCV in tissue culture” value with HCV is listed as “inhibited replication of HCV in tissue culture”.

The molecule IVGRIVL [IVGRIVL] came in with an equilibrium dissociation constant (Kd) at HCV NS3 protease domain of 103 µM. Further, the Rate at NS3 protease was 1.80 µmol/min/mg.

With Ac-DEMEED-OH [Ac-DEMEED-OH], the “FAC-MS elution profile (late elution indicates NS3 binding)” value on HCV NS3 protease domain (Ac-DEMEEX-OH library randomized at P1, FIG. 2) is on record as “eluted very late”. The “FAC-MS elution time with a known protease inhibitor added to the library” value on HCV NS3 protease domain (competitive assay, FIG. 3) is given as “shifted forward”.

Turning to VIVGRIVL [VIVGRIVL], the equilibrium dissociation constant (Kd) on HCV NS3 protease domain turned out to be 88 µM. Also, on NS3 protease, the Rate came out at 1.76 µmol/min/mg.

Turning to `CC[C@H](C)[C@H](NC(=O)[C@H](CCCNC(=N)N)NC(=O)CNC(=O)[C@@H](NC(=O)[C@@H](NC(=O)[C@@H](NC(=O)[C@@H](NC(=O)[C@H](CO)NC(=O)CNC(=O)[C@H](CCCCN)NC(=O)[C@@H](N)CCCCN)C(C)(C)S)C(C)C)[C@@H](C)CC)C(C)C)C(=O)N[C@H](C(=O)N[C@@H](CC(C)C)C(=O)N[C@@H](CO)C(=O)NCC(=O)N[C@@H](CCCCN)C(=O)O)C(C)C` [Peptide V23Pen] (H-KKGS[Pen]VIVGRIVLSGK-OH; N-terminus and C-terminus assumed), the dissociation constant Kd at HCV NS3 protease domain is 4.7 µM. Moreover, the catalytic constant (kcat) was 0.0145 ± 0.0015 s⁻¹ at NS3 [1] and 0.113 ± 0.01 s⁻¹ on NS3 [2].
